According to patent US10669255B2, “Pyrrole derivatives” (HUA MEDICINE (SHANGHAI) LTD., priority 2016, dated 2020):

Biological target: T1, recombinant rat mGluR5 (Rattus norvegicus, UniProt P31424)
T1 construct: expressed in transfected cells
Experiment: Functional calcium flux assay (FLIPR), antagonism of glutamate-evoked [Ca2+]i increase
Assay type: cell-based
Conditions: HEK293 cells stably expressing recombinant rat mGluR5; Fluo-8; 15 min incubation of test compound, then submaximal glutamate
Method: Functional Calcium Flux Assay Methodology
For functional assays, HEK293 cells stably expressing recombinant rat mGluR5 were seeded in 384-well plates and dye loaded using Fluo-8. Cells were then washed to remove the un-incorporated dye. Antagonist evaluation was performed following a 15 min incubation of the test compound followed by the addition of submaximal concentration of glutamate. Intracellular calcium ([Ca^2+]i) measurements were performed using a fluorometric imaging plate reader (FLIPR, Molecular Devices). The glutamate-evoked increase in [Ca^2+]i in the presence of the test compounds was compared to the response to glutamate alone (the positive control). Antagonist inhibition curves were fitted with a 4-parameter logistic equation giving IC50 values, and Hill coefficients using an iterative nonlinear curve fitting algorithm.
The tables below provide IC50 data in this assay. In the activity column, A=IC50 >1,000 and ≤5,000 nM; B=IC50>500 and ≤1,000 nM and C=IC50≤500 nM.

T1 sequence (P31424 21-1203): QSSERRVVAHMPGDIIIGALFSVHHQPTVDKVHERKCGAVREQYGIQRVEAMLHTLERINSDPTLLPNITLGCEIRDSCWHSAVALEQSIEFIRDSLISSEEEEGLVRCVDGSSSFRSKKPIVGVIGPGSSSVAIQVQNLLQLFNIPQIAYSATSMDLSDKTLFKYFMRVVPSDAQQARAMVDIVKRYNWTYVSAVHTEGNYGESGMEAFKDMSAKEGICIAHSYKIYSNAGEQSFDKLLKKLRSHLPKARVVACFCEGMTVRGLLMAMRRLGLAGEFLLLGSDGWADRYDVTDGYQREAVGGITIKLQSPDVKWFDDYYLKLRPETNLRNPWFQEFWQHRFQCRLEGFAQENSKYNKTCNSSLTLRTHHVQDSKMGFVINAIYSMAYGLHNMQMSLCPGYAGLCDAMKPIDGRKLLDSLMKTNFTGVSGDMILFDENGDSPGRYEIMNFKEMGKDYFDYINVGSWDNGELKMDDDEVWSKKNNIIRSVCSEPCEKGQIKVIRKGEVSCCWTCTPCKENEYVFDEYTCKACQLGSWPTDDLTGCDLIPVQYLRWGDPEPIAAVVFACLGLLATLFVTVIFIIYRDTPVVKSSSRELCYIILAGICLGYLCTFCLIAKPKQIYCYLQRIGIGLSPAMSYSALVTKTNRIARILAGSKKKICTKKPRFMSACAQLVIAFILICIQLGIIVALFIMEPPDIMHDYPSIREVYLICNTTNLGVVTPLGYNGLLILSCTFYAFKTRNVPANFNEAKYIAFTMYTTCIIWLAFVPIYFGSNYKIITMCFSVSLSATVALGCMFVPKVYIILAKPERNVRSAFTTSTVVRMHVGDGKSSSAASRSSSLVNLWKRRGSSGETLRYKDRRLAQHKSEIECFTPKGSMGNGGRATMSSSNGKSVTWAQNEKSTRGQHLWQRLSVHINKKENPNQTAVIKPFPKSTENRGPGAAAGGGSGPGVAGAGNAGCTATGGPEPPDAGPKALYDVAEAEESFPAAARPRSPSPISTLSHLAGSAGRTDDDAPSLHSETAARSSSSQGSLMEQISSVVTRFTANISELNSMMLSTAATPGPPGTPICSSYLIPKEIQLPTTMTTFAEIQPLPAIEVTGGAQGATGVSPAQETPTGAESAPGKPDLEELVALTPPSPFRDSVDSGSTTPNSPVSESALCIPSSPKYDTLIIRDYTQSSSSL

SMILES | IC50 [µM]
Cc1cc(C#Cc2ccncc2)c(C)n1-c1ccc(OC(F)(F)F)cc1 [Example Compound 10, 4-((2,5-dimethyl-1-(4-(trifluoromethoxy)phenyl)-1H-pyrrol-3-yl)ethynyl)pyridine] | 1 to 5
N#Cc1cc(F)cc(-n2ccc(C#Cc3ccccn3)c2)c1 [Example Compound 6, 3-fluoro-5-(3-(pyridin-2-ylethynyl)-1H-pyrrol-1-yl)benzonitrile] | ≤ 0.5
N#Cc1cc(F)cc(-n2cc(C#Cc3ccccn3)c3ccccc32)c1 [Example Compound 2, 3-fluoro-5-(3-(pyridin-2-ylethynyl)-1H-indol-1-yl)benzonitrile] | ≤ 0.5
Cc1cc(C#Cc2ccccn2)c(C)n1-c1ccc(OC(F)(F)F)cc1 [Example Compound 8, 2-((2,5-dimethyl-1-(4-(trifluoromethoxy)phenyl)-1H-pyrrol-3-yl)ethynyl)pyridine] | ≤ 0.5
N#Cc1cc(F)cc(-n2cc(F)c(C#Cc3ccccn3)c2)c1 [Example Compound 5, 3-fluoro-5-(3-fluoro-4-(pyridin-2-ylethynyl)-1H-pyrrol-1-yl)benzonitrile] | ≤ 0.5
Cc1cc(C#Cc2ncccn2)c(C)n1-c1ccc(OC(F)(F)F)cc1 [Example Compound 9, 2-((2,5-dimethyl-1-(4-(trifluoromethoxy)phenyl)-1H-pyrrol-3-yl)ethynyl)pyrimidine] | ≤ 0.5

Other lines, results leading:

IC50 [µM] | SMILES
≤ 0.5 | N#Cc1cc(I)cc(-n2cc(C#Cc3ccccn3)c3ccccc32)c1 [Example Compound 1, 3-iodo-5-(3-(pyridin-2-ylethynyl)-1H-indol-1-yl)benzonitrile]
≤ 0.5 | Fc1ccc(-n2ccc(C#Cc3ccccc3)c2)cc1 [Example Compound 7, 1-(4-fluorophenyl)-3-(phenylethynyl)-1H-pyrrole]
≤ 0.5 | Fc1ccc(-n2cc(C#Cc3ncccn3)c3ccccc32)cc1 [Example Compound 4, 1-(4-fluorophenyl)-3-(pyrimidin-2-ylethynyl)-1H-indole]
≤ 0.5 | Fc1ccc(-n2cc(C#Cc3ccccn3)c3ccccc32)cc1 [Example Compound 3, 1-(4-fluorophenyl)-3-(pyridin-2-ylethynyl)-1H-indole]
